Assay results as given in patent US8017786B2, “Substituted β-phenyl-α-hydroxy-propanoic acid, synthesis method and use thereof” (Northwest University, priority 2006, dated 2011).

Test system: anesthetized rats
Assay: Blood pressure and left ventricular function of anesthetized rats
Type: in vivo, rat
Design: contractive pressure, change ratio: unit not given here
Procedure: All data were input into PowerLab/8Sp data acquisition and processing system via RM-6000 multi-channel polygraph, and recorded, analyzed and processed by PowerLab/8Sp.
The abdomen was opened 1.5 cm below xiphoid bone to isolate duodenum, a small incision was formed on the duodenum away from blood vessels by ophthalmic scissors, a catheter was inserted and the incision was fixed by suture for administration. After the end of operation and a further waiting period of 30 min, normal data were recorded once the indexes to be monitored were stable.
Test drugs were duodenally administered via the catheter, and the indexes were monitored 5, 15, 30, 60, 90 and 120 min after the administration. The change ratios of the indexes were calculated in accordance with the following formula, and were used for statistic analysis among groups.

[1] = 4.5 mg/kg duodenal, 5 min after administration
[2] = 4.5 mg/kg duodenal, 15 min after administration
[3] = 4.5 mg/kg duodenal, 30 min after administration
[4] = 4.5 mg/kg duodenal, 60 min after administration
[5] = 4.5 mg/kg duodenal, 90 min after administration
[6] = 4.5 mg/kg duodenal, 120 min after administration
[7] = 4.5 mg/kg duodenal, before administration
[8] = 9 mg/kg duodenal, 5 min after administration
[9] = 9 mg/kg duodenal, 15 min after administration
[10] = 9 mg/kg duodenal, 30 min after administration
[11] = 9 mg/kg duodenal, 60 min after administration

CC1(C)C2CCC1(C)C(OC(=O)C(O)Cc1ccc(O)c(O)c1)C2 (stereo not drawn) [bornyl salvianate ester, bornyl β-(3,4-dihydroxylphenyl)-α-hydroxylpropionate ester]
mean arterial pressure, systolic pressure and diastolic pressure (in words) (4.5 mg/kg): exhibited no significant change
change-rate of left intraventricular pressure MAX [1]: 5429.3 ± 1279.7 mmHg/s
change-rate of left intraventricular pressure MAX, change ratio [1]: 0.4 ± 11.0
change-rate of left intraventricular pressure, -MAX [1]: −4152.9 ± 764.8 mm/Hg/s
change-rate of left intraventricular pressure, -MAX, change ratio [1]: −2.2 ± 8.2
contractive pressure [1]: 126.54 ± 25.94 mmHg
contractive pressure, change ratio [1]: −1.96 ± 11.16
diastolic pressure [1]: 68.68 ± 15.82 mmHg
diastolic pressure, change ratio [1]: −0.08 ± 12.81
heart rate [1]: 337.41 ± 47.67 beat/min
heart rate, change ratio [1]: 2.49 ± 7.18
left intraventricular pressure [1]: 128.67 ± 18.24 mmHg
left intraventricular pressure, change ratio [1]: 0.38 ± 6.72
mean arterial pressure [1]: 87.97 ± 18.89 mmHg
mean arterial pressure, change ratio [1]: −1.01 ± 11.95
change-rate of left intraventricular pressure MAX [2]: 5435.9 ± 1216.6 mmHg/s
change-rate of left intraventricular pressure MAX, change ratio [2]: 0.9 ± 11.4
change-rate of left intraventricular pressure, -MAX [2]: −4141.1 ± 755.6 mm/Hg/s
change-rate of left intraventricular pressure, -MAX, change ratio [2]: −2.4 ± 9.1
contractive pressure [2]: 128.80 ± 24.39 mmHg
contractive pressure, change ratio [2]: −0.05 ± 10.13
diastolic pressure [2]: 70.87 ± 15.08 mmHg
diastolic pressure, change ratio [2]: 3.38 ± 12.17
heart rate [2]: 347.56 ± 47.18 beat/min
heart rate, change ratio [2]: 5.67 ± 7.58
left intraventricular pressure [2]: 130.13 ± 18.12 mmHg
left intraventricular pressure, change ratio [2]: 1.51 ± 6.25
mean arterial pressure [2]: 90.18 ± 17.91 mmHg
mean arterial pressure, change ratio [2]: 1.66 ± 11.07
change-rate of left intraventricular pressure MAX [3]: 5408.8 ± 1352.2 mmHg/s
change-rate of left intraventricular pressure MAX, change ratio [3]: 0.1 ± 13.5
change-rate of left intraventricular pressure, -MAX [3]: −4090.5 ± 704.6 mm/Hg/s
change-rate of left intraventricular pressure, -MAX, change ratio [3]: −3.6 ± 6.5
contractive pressure [3]: 129.90 ± 23.86 mmHg
contractive pressure, change ratio [3]: 0.93 ± 11.47
diastolic pressure [3]: 71.78 ± 15.67 mmHg
diastolic pressure, change ratio [3]: 4.78 ± 14.39
heart rate [3]: 348.91 ± 52.11 beat/min
heart rate, change ratio [3]: 5.97 ± 9.72
left intraventricular pressure [3]: 129.67 ± 17.48 mmHg
left intraventricular pressure, change ratio [3]: 1.22 ± 7.07
mean arterial pressure [3]: 91.15 ± 17.95 mmHg
mean arterial pressure, change ratio [3]: 2.91 ± 12.81
change-rate of left intraventricular pressure MAX [4]: 5760.1 ± 1393.5 mmHg/s
change-rate of left intraventricular pressure MAX, change ratio [4]: 7.1 ± 18.3
change-rate of left intraventricular pressure, -MAX [4]: −4146.8 ± 820.5 mm/Hg/s
change-rate of left intraventricular pressure, -MAX, change ratio [4]: −2.4 ± 10.2
contractive pressure [4]: 135.97 ± 22.80 mmHg
contractive pressure, change ratio [4]: 5.64 ± 8.91
diastolic pressure [4]: 76.78 ± 14.34 mmHg
diastolic pressure, change ratio [4]: 12.13 ± 9.39
heart rate [4]: 365.43 ± 32.77 beat/min
heart rate, change ratio [4]: 12.05 ± 12.32
left intraventricular pressure [4]: 134.39 ± 19.12 mmHg
left intraventricular pressure, change ratio [4]: 4.73 ± 6.55
mean arterial pressure [4]: 96.51 ± 16.69 mmHg
mean arterial pressure, change ratio [4]: 8.95 ± 8.95
change-rate of left intraventricular pressure MAX [5]: 5706.1 ± 1390.6 mmHg/s
change-rate of left intraventricular pressure MAX, change ratio [5]: 7.6 ± 26.1
change-rate of left intraventricular pressure, -MAX [5]: −4156.0 ± 947.7 mm/Hg/s
change-rate of left intraventricular pressure, -MAX, change ratio [5]: −2.2 ± 15.9
contractive pressure [5]: 131.95 ± 25.10 mmHg
contractive pressure, change ratio [5]: 2.56 ± 13.11
diastolic pressure [5]: 74.71 ± 18.13 mmHg
diastolic pressure, change ratio [5]: 8.47 ± 17.66
heart rate [5]: 369.71 ± 35.54 beat/min
heart rate, change ratio [5]: 13.31 ± 13.05
left intraventricular pressure [5]: 130.91 ± 17.22 mmHg
left intraventricular pressure, change ratio [5]: 2.39 ± 9.41
mean arterial pressure [5]: 93.79 ± 20.11 mmHg
mean arterial pressure, change ratio [5]: 5.62 ± 15.30
change-rate of left intraventricular pressure MAX [6]: 5512.7 ± 1250.1 mmHg/s
change-rate of left intraventricular pressure MAX, change ratio [6]: 3.6 ± 20.4
change-rate of left intraventricular pressure, -MAX [6]: −3995.2 ± 837.9 mm/Hg/s
change-rate of left intraventricular pressure, -MAX, change ratio [6]: −5.6 ± 14.3
contractive pressure [6]: 128.62 ± 28.30 mmHg
contractive pressure, change ratio [6]: −0.49 ± 12.28
diastolic pressure [6]: 72.46 ± 20.46 mmHg
diastolic pressure, change ratio [6]: 4.39 ± 16.80
heart rate [6]: 360.36 ± 51.93 beat/min
heart rate, change ratio [6]: 9.40 ± 6.30
left intraventricular pressure [6]: 129.15 ± 18.53 mmHg
left intraventricular pressure, change ratio [6]: 0.79 ± 7.76
mean arterial pressure [6]: 91.18 ± 22.76 mmHg
mean arterial pressure, change ratio [6]: 2.06 ± 14.37
change-rate of left intraventricular pressure MAX [7]: 5380.2 ± 913.7 mmHg/s
change-rate of left intraventricular pressure, -MAX [7]: −4246.1 ± 669.3 mm/Hg/s
contractive pressure [7]: 129.06 ± 22.13 mmHg
diastolic pressure [7]: 68.47 ± 11.97 mmHg
heart rate [7]: 329.43 ± 43.77 beat/min
left intraventricular pressure [7]: 128.68 ± 20.18 mmHg
mean arterial pressure [7]: 88.67 ± 14.74 mmHg
effect on the heart rate (in words) (4.5 mg/kg, 9 mg/kg and 18 mg/kg doses): no significant effects
−dp/dt (in words) (9 mg/kg and 18 mg/kg, significant at 60 and 120 min): exhibited a decrease tendency
change-rate of left intraventricular pressure MAX [8]: 5388.9 ± 1187.0 mmHg/s
change-rate of left intraventricular pressure MAX, change ratio [8]: −0.7 ± 6.7
change-rate of left intraventricular pressure, -MAX [8]: −3908.5 ± 1013.0 mm/Hg/s
change-rate of left intraventricular pressure, -MAX, change ratio [8]: 0.0 ± 11.2
contractive pressure [8]: 131.10 ± 24.38 mmHg
contractive pressure, change ratio [8]: −1.14 ± 6.68
diastolic pressure [8]: 68.02 ± 18.77 mmHg
diastolic pressure, change ratio [8]: −2.47 ± 10.80
heart rate [8]: 374.04 ± 47.60 beat/min
heart rate, change ratio [8]: 0.28 ± 7.83
left intraventricular pressure [8]: 128.87 ± 25.63 mmHg
left intraventricular pressure, change ratio [8]: −0.03 ± 8.26
mean arterial pressure [8]: 89.05 ± 20.26 mmHg
mean arterial pressure, change ratio [8]: −1.79 ± 8.69
change-rate of left intraventricular pressure MAX [9]: 5321.6 ± 1133.0 mmHg/s
change-rate of left intraventricular pressure MAX, change ratio [9]: −1.6 ± 7.4
change-rate of left intraventricular pressure, -MAX [9]: −3792.8 ± 979.5 mm/Hg/s
change-rate of left intraventricular pressure, -MAX, change ratio [9]: −2.9 ± 10.2
contractive pressure [9]: 127.85 ± 23.92 mmHg
contractive pressure, change ratio [9]: −3.57 ± 7.14
diastolic pressure [9]: 66.18 ± 19.00 mmHg
diastolic pressure, change ratio [9]: −5.33 ± 9.64
heart rate [9]: 374.93 ± 47.51 beat/min
heart rate, change ratio [9]: 0.48 ± 7.36
left intraventricular pressure [9]: 127.06 ± 25.57 mmHg
left intraventricular pressure, change ratio [9]: −1.37 ± 9.10
mean arterial pressure [9]: 86.74 ± 20.25 mmHg
mean arterial pressure, change ratio [9]: −4.42 ± 8.30
change-rate of left intraventricular pressure MAX [10]: 5179.1 ± 1270.9 mmHg/s
change-rate of left intraventricular pressure MAX, change ratio [10]: −5.0 ± 7.8
change-rate of left intraventricular pressure, -MAX [10]: −3696.8 ± 997.3 mm/Hg/s
change-rate of left intraventricular pressure, -MAX, change ratio [10]: −5.5 ± 10.8
contractive pressure [10]: 122.58 ± 23.46 mmHg
contractive pressure, change ratio [10]: −7.38 ± 8.66
diastolic pressure [10]: 62.90 ± 17.46 mmHg
diastolic pressure, change ratio [10]: −9.50 ± 10.75
heart rate [10]: 361.94 ± 43.56 beat/min
heart rate, change ratio [10]: −3.00 ± 5.83
left intraventricular pressure [10]: 123.59 ± 25.06 mmHg
left intraventricular pressure, change ratio [10]: −4.07 ± 8.57
mean arterial pressure [10]: 82.79 ± 18.98 mmHg
mean arterial pressure, change ratio [10]: −8.42 ± 9.56
change-rate of left intraventricular pressure MAX [11]: 4966.9 ± 1297.4 mmHg/s
change-rate of left intraventricular pressure MAX, change ratio [11]: −9.2 ± 10.0
change-rate of left intraventricular pressure, -MAX [11]: −3569.5 ± 857.8 mm/Hg/s
change-rate of left intraventricular pressure, -MAX, change ratio [11]: −8.3 ± 10.2
contractive pressure [11]: 115.46 ± 23.90 mmHg
